≈ marks a conversion by molar mass, not a printed value.
How the values were obtained:
[1] = system: E. coli NIHJ JC-2; assay: Antibacterial activity, agar plate dilution method (MIC); format: cell-based; conditions: Escherichia coli, NIHJJC2, 37° C., 18 hours
Procedure: (§1) Antibacterial activity was tested by using an agar plate dilution method in accordance with the standard method of the Japanese Chemotherapy Society [Chemotherapy, vol. 29, 76-79 (1981)].
(§2) Mueller-Hinton (MH) agar liquid media of the test microorganisms were cultured overnight at 37° C. and the resultant culture media were diluted with a buffered saline gelatin (BSG) solution to contain approximately 10^5 cells of the test microorganisms per milliliter. Then, about 5 microliters each of the diluted solutions were inoculated on MH agar media containing the test compound by using a microplanter.
(§3) The test microorganism strains used in this test were all standard ones. The test compound used herein was Compound (22) obtained in Preparation 6, i.e., the compound of formula (II), which is the active metabolite of the compounds of formula (I).

[2] = system: S. aureus MS353; assay: as above; format: cell-based; conditions: Staphylococcus aureus, 37° C., 18 hours
Procedure: as §1, §2, §3

[3] = system: K. pneumoniae PCI-602; assay: as above; format: cell-based; conditions: Klebsiella pneumoniae, PCI602, 37° C., 18 hours
Procedure: as §1, §2, §3

[4] = system: E. cloacae 963; assay: as above; format: cell-based; conditions: Enterobacter cloacae, 37° C., 18 hours
Procedure: as §1, §2, §3

[5] = system: S. aureus Terajima; assay: as above; format: cell-based; conditions: Staphylococcus aureus, 37° C., 18 hours
Procedure: as §1, §2, §3

[6] = system: S. aureus FDA209P JC-1; assay: as above; format: cell-based; conditions: Staphylococcus aureus, 37° C., 18 hours
Procedure: as §1, §2, §3

[7] = system: S. marcescens IAM 1184; assay: as above; format: cell-based; conditions: Serratia marcescens, IAM1184, 37° C., 18 hours
Procedure: as §1, §2, §3

[8] = system: E. coli K-12 C600; assay: as above; format: cell-based; conditions: Escherichia coli, K12C600, 37° C., 18 hours
Procedure: as §1, §2, §3

[9] = system: S. typhi 901; assay: as above; format: cell-based; conditions: Salmonella enterica, 18 h
Procedure: as §1, §2, §3

[10] = system: S. schottmuelleri 8006; assay: as above; format: cell-based; conditions: 37° C., 18 hours
Procedure: as §1, §2, §3

[11] = system: M. morganii IFO 3848; assay: as above; format: cell-based; conditions: Morganella morganii, IFO3848, 37° C., 18 hours
Procedure: as §1, §2, §3

[12] = system: S. paratyphi 1015; assay: as above; format: cell-based; conditions: Salmonella enterica, 18 h
Procedure: as §1, §2, §3

[13] = system: P. vulgaris HX-19; assay: as above; format: cell-based; conditions: Proteus vulgaris, HX19, 37° C., 18 hours
Procedure: as §1, §2, §3

[14] = system: P. rettgeri IFO 3850; assay: as above; format: cell-based; conditions: Providencia rettgeri, IFO3850, 37° C., 18 hours
Procedure: as §1, §2, §3

[15] = system: M. luteus ATCC 9341; assay: as above; format: cell-based; conditions: Micrococcus luteus, ATCC9341, 37° C., 18 hours
Procedure: as §1, §2, §3

[16] = system: S. enteritidis G14; assay: as above; format: cell-based; conditions: Salmonella enterica, 37° C., 18 hours
Procedure: as §1, §2, §3

[17] = system: E. aerogenes ATCC 13048; assay: as above; format: cell-based; conditions: Klebsiella aerogenes, ATCC13048, 37° C., 18 hours
Procedure: as §1, §2, §3

[18] = system: S. typhimurium 11D971; assay: as above; format: cell-based; conditions: Salmonella enterica, 37° C., 18 hours
Procedure: as §1, §2, §3

[19] = system: P. vulgaris OX-19; assay: as above; format: cell-based; conditions: Proteus vulgaris, OX19, 37° C., 18 hours
Procedure: as §1, §2, §3

[20] = system: P. mirabilis IFO 3849; assay: as above; format: cell-based; conditions: Proteus mirabilis, IFO3849, 37° C., 18 hours
Procedure: as §1, §2, §3

[21] = system: S. pyogenes Cook; assay: as above; format: cell-based; conditions: Streptococcus pyogenes, 37° C., 18 hours
Procedure: as §1, §2, §3

[22] = system: B. subtilis ATCC 6633; assay: as above; format: cell-based; conditions: Bacillus subtilis, ATCC6633, 37° C., 18 hours
Procedure: as §1, §2, §3

[23] = Stability Test (storage stability, residual activity by HPLC); format: physicochemical; conditions: for Residual activity, initial day: assumed to be 100%; for Residual activity, 1 month: 43800 min; for Residual activity, 3 months: 131400 min; for Retention of potency on storage: conclusion from Table 2; for Residual activity, 1 month / remaining at 730 h: 1 month
Procedure: Storage stability of (1-methylcyclohexane-carboxy)methyl (1R,5S,6S)-2-[(1-(1,3-thiazolin-2-yl)azetidin-3-yl)thio]-6-[(R)-1-hydroxyethyl]-1-methyl-carbapen-2-em-3-carboxylate [Compound (24)] was tested in comparison with its amorphous form and (cyclohexanecarboxy)methyl (1R,5S,6S)-2-[(1-(1,3-thiazolin-2-yl)azetidin-3-yl)thio]-6-[(R)-1-hydroxyethyl]-1-methyl-carbapen-2-em-3-carboxylate [Compound (C)], which is disclosed in European Patent Publication 632,039 A1.
Each compound in an amount of 20 mg was put in a glass bottle, and left to stand for 3 months in a constant-temperature chamber at 40° C. and at 40° C. /75% of humidity. The activity of each compound was assayed by HPLC after 1 month and 3 months, respectively. Assuming the activity at the beginning (initial day) to be 100%, the decrease in the activity is shown by percent residual activity in Table 2.

[24] = 40° C., HPLC, initial day = 100%
[25] = 40° C., 3 months, HPLC, initial day = 100%
[26] = solid storage, 40° C./75% humidity, HPLC, initial day = 100%

`C[C@@H](O)[C@H]1C(=O)N2C(C(=O)O)=C(SC3CN(C4=NCCS4)C3)[C@H](C)[C@H]12` [Compound (22), (1R,5S,6S)-2-[(1-(thiazolin-2-yl)azetidin-3-yl)thio]-6-[(R)-1-hydroxyethyl]-1-methyl-carbapen-2-em-3-carboxylic acid] showed an MIC [1] of 0.013 µg/mL (≈ 0.0339 µM), an MIC [2] of at most 0.006 µg/mL and an MIC [3] of 0.013 µg/mL (≈ 0.0339 µM). For the same compound, the MIC [4] was 0.05 µg/mL (≈ 0.13 µM), the MIC [5] was at most 0.006 µg/mL and the MIC [6] was 0.013 µg/mL (≈ 0.0339 µM). For the same compound, the MIC [7] was 0.05 µg/mL (≈ 0.13 µM), the MIC [8] was 0.1 µg/mL (≈ 0.261 µM) and the MIC [9] was at most 0.006 µg/mL. For the same compound, the MIC [10] was 0.025 µg/mL (≈ 0.0652 µM), the MIC [11] was 0.39 µg/mL (≈ 1.02 µM) and the MIC [12] was 0.05 µg/mL (≈ 0.13 µM). It also gave an MIC [13] of 0.1 µg/mL (≈ 0.261 µM), an MIC [14] of 0.39 µg/mL (≈ 1.02 µM) and an MIC [15] of 0.2 µg/mL (≈ 0.522 µM). It also gave an MIC [16] of 0.39 µg/mL (≈ 1.02 µM), an MIC [17] of 0.1 µg/mL (≈ 0.261 µM) and an MIC [18] of 0.025 µg/mL (≈ 0.0652 µM). It also gave an MIC [19] of 0.1 µg/mL (≈ 0.261 µM), an MIC [20] of 0.39 µg/mL (≈ 1.02 µM) and an MIC [21] of at most 0.006 µg/mL. The MIC [22] was 0.025 µg/mL (≈ 0.0652 µM).

With `C[C@@H](O)[C@H]1C(=O)N2C(C(=O)OCOC(=O)C3(C)CCCCC3)=C(SC3CN(C4=NCCS4)C3)[C@H](C)[C@H]12` [Compound (24) (Amorphous), (1-methylcyclohexane-carboxy)methyl (1R,5S,6S)-2-[(1-(1,3-thiazolin-2-yl)azetidin-3-yl)thio]-6-[(R)-1-hydroxyethyl]-1-methyl-carbapen-2-em-3-carboxylate] the “Residual activity, initial day” value ([23]; 40° C./75% humidity) was 100%, the “Residual activity, 1 month” value [23, 24] was 67.5% and the “Residual activity, 3 months” value [23, 25] was 36.8%. The “Residual activity, initial day” value ([23]; 40° C.) was 100% and the “Retention of potency on storage” value ([23]; listed as amorphous form) was “rapidly loses its potency”.

With `C[C@@H](O)[C@H]1C(=O)N2C(C(=O)OCOC(=O)C3(C)CCCCC3)=C(SC3CN(C4=NCCS4)C3)[C@H](C)[C@H]12` [Compound (24) (Crystalline), (1-methylcyclohexane-carboxy)methyl (1R,5S,6S)-2-[(1-(1,3-thiazolin-2-yl)azetidin-3-yl)thio]-6-[(R)-1-hydroxyethyl]-1-methyl-carbapen-2-em-3-carboxylate] the “Residual activity, initial day” value ([23]; 40° C./75% humidity) was 100%, the “Residual activity, 1 month” value [23, 24] was 99.4% and the “Residual activity, 3 months” value [23, 25] was 99.2%. The “Residual activity, initial day” value ([23]; 40° C.) was 100%, the “Retention of potency on storage” value ([23]; listed as crystalline form of Compound (24)) was “retains its potency over a long period of time” and the remaining at 730 h [23, 26] was 98.9%.

With `C[C@@H](O)[C@H]1C(=O)N2C(C(=O)OCOC(=O)C3CCCCC3)=C(SC3CN(C4=NCCS4)C3)[C@H](C)[C@H]12` [Compound (C) (Crystalline), (cyclohexanecarboxy)methyl (1R,5S,6S)-2-[(1-(1,3-thiazolin-2-yl)azetidin-3-yl)thio]-6-[(R)-1-hydroxyethyl]-1-methyl-carbapen-2-em-3-carboxylate, reference compound] the “Residual activity, initial day” value ([23]; 40° C./75% humidity) was 100%, the “Residual activity, initial day” value ([23]; 40° C.) was 100% and the remaining at 730 h [23, 26] was 73.7%. The remaining at 730 h ([23]; solid storage, 40° C., HPLC, initial day = 100%) was 98.9% and the remaining at 2190 h ([23]; solid storage, 40° C., 3 months, HPLC, initial day = 100%) was 94.2%.

Reference: patent US5886172A, “Carbapenem-3-carboxylic acid ester derivatives” (Lederle (Japan) Ltd., priority 1995, dated 1999)
